According to patent US5602176A, “Phenyl carbamate” (priority 1987, dated 1997):
Where two headings read alike, the source gives them in different places.

Experiments:
[1] = system: rat hippocampal slices (indirect method for acetylcholinesterase (AChE) inhibition); assay: Electrically evoked 3H-acetylcholine release from rat hippocampal slices; assay type: cell-based
Source text: Electrically evoked ^3 H-acetylcholine release from rat hippocampal slices
Electrically evoked ^3 H-acetylcholine (^3 H-ACh) release from rat hippocampal slices is a functional in vitro model to investigate presynaptic muscarinic autoreceptor agonists and antagonists. This model can also be used as an indirect method to evaluate drugs which inhibit acetylcholinesterase (AChE). Inhibition of AChE activity leads to the accumulation of endogenous ACh which then interacts with presynaptic muscarinic autoreceptors and inhibits further release of ^3 H-ACh.
Rat hippocampal slices (Wistar strain, 180-200 g) are prepared by chopping into cross sections whole hippocampal slices at a distance of 0.3 mm with a McIlwain tissue chopper. Hippocampal slices obtained from 3 rats are incubated for 30 min. at 23° C. in 6 ml Krebs-Ringer containing 0.1 uCi ^3 H-choline and transferred into the superfusion chamber and superfused with Kreb's medium containing 10 μM hemicholinium-3 at a rate of 1.2 ml/min. at 30° C. Collection of 5 min. fractions of the superfusate begins after 60 min. of superfusion. Two periods of electrical stimulation (2 Hz rectangular pulses 2 msec, 10 mA, 2 min.) are applied after 70 min. (S1) and after 125 min. (S2) of superfusion. […] At the end of the experiments the slices are solubilized in conc. formic acid and tritium content is determined in the superfusate and the solubilized slices. Tritium outflow is expressed as the fractional rate of tritium outflow per min. Electrically evoked tritium outflow is calculated by subtraction of the extrapolated basal tritium outflow from the total tritium outflow during the two min. of electrical stimulation and the following 13 min. and is expressed as percent of the tritium content at the beginning of the sample collection. Drug effects on stimulation evoked tritium outflow are expressed as the ratios S2 /S1. All experiments are run in dublicates using a programmable 12 channel superfusion system. For the calculation a computer program is used.

[2] = target: T1, AChE preparations of different rat brain regions (Rattus norvegicus, UniProt P37136); assay: Acetylcholinesterase inhibition in different rat brain regions (in vitro, Ellman); assay type: biochemical; settings: table 1
T1 construct: Rat brain tissue is homogenized in cold phosphate buffer pH 7.3; from tissue; host or cells: rat brain (cortex, hippocampus, striatum), supernatant of Triton X-100 homogenate
T1 sequence (P37136 32-614): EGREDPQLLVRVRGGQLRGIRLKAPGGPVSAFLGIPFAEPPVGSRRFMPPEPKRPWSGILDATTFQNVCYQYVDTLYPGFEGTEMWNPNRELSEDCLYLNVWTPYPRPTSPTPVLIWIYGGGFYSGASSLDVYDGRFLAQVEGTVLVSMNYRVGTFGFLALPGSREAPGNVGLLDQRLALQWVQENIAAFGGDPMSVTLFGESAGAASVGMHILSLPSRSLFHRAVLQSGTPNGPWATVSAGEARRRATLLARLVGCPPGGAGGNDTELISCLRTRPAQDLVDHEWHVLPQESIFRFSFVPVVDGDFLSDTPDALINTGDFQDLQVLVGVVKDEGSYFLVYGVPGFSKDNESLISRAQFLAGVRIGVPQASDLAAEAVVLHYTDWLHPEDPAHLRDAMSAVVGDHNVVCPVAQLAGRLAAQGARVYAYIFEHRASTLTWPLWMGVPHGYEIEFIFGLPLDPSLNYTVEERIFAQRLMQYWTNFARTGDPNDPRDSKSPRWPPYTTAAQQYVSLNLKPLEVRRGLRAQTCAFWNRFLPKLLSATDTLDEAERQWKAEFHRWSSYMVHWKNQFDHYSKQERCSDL
Method: Acetylcholinesterase inhibition in different rat brain regions
AChE preparations of different rat brain regions (Cortex, hippocampus and striatum) are used in this test and the IC50 (inhibitory concentrations in μM) are determined. The enzyme preparations are preincubated with the inhibitor 15 minutes before the determination.
(§1) The AChE activity is measured according to the method described by Ellman (Arch. Biochem. Biophys. 82, 70, 1959). Rat brain tissue is homogenized in cold phosphate buffer pH 7.3 (0.25 mM) containing 0.1% of Triton X-100. After centrifugation aliquots of the clear supernatant is used as enzyme source. The enzyme is preincubated with different concentrations of the inhibitor. After different times, substrate (acetylthiocholinjodide 0.5 mM) is added and the remaining activity determined.

AChE [3] = target: T2, AChE (Rattus norvegicus, UniProt P37136); assay: in vivo; design: Rat brain tissue is homogenized in cold phosphate buffer pH 7.3; from tissue; host or cells: rat brain (cortex, hippocampus, striatum), supernatant of Triton X-100 homogenate; settings: for ED50: rat, po, 0.5 h
T2 sequence (P37136 32-614): as above
Method: as §1
Acetylcholinesterase inhibition ex vivo in different rat brain regions
The method is as disclosed above.

AChE [4] = target: T2, AChE; assay: in vivo; assay type: in vivo; design: from tissue; host or cells: male OFA rats: cortex, hippocampus, striatum, pons/medulla, heart, blood; settings: for remaining activity at 10 µmol/kg: rat, po
[5] = six hours after 10 μmol/kg p.o.
[6] = Subcutaneous 8 μmol/kg, 0.5 hours after treatment
[7] = Subcutaneous 8 μmol/kg, 6 hours after treatment
[8] = Subcutaneous 8 μmol/kg, 24 hours after treatment
[9] = Transdermal 30 μmol/kg, 0.5 hours after treatment
[10] = Transdermal 30 μmol/kg, 6 hours after treatment
[11] = Transdermal 30 μmol/kg, 24 hours after treatment

CCN(C)C(=O)Oc1cccc([C@H](C)N(C)C)c1 [Compound A, (S)-N-ethyl-3-[(1-dimethylamino)ethyl]-N-methyl-phenyl-carbamate]
antagonism of the inhibitory effect by atropine [1]: can be antagonized by atropine | inhibition at 100 µM ([1]; Rattus norvegicus, 3 h, 100 μM, read-out: inhibition of electrically evoked 3H-ACh release from hippocampal slices): ~40% | AChE inhibition in vitro, comparison in words [2]: slightly superior than that with racemate C | ED50 (AChE [3]; read-out: IC50 ex vivo AChE, cortex): 2 µmol/kg | ED50 (AChE [3]; read-out: IC50 ex vivo AChE, hippocampus): 4 µmol/kg | ED50 (AChE [3]; read-out: IC50 ex vivo AChE, striatum): 7 µmol/kg | AChE inhibition ex vivo, cortex (AChE [3]; [5]): 39% | AChE inhibition ex vivo, hippocampus (AChE [3]; [5]): 44% | AChE inhibition ex vivo, striatum (AChE [3]; [5]): 16% | AChE activity in % of controls ± SD, Blood (AChE [4]; [6]): 17.4 ± 4.1 % of controls | AChE activity in % of controls ± SD, Cortex (AChE [4]; [6]): 16.8 ± 2.0 % of controls | AChE activity in % of controls ± SD, Heart (AChE [4]; [6]): 33.3 ± 5.6 % of controls | AChE activity in % of controls ± SD, Hippocampus (AChE [4]; [6]): 18.3 ± 3.1 % of controls | AChE activity in % of controls ± SD, Pons/Medulla (AChE [4]; [6]): 20.9 ± 2.9 % of controls | AChE activity in % of controls ± SD, Striatum (AChE [4]; [6]): 28.2 ± 12.2 % of controls | AChE activity in % of controls ± SD, Blood (AChE [4]; [7]): 79.5 ± 8.2 % of controls | AChE activity in % of controls ± SD, Cortex (AChE [4]; [7]): 85.1 ± 1.6 % of controls | AChE activity in % of controls ± SD, Heart (AChE [4]; [7]): 51.0 ± 17.9 % of controls | AChE activity in % of controls ± SD, Hippocampus (AChE [4]; [7]): 81.4 ± 7.6 % of controls | AChE activity in % of controls ± SD, Pons/Medulla (AChE [4]; [7]): 87.1 ± 4.1 % of controls | AChE activity in % of controls ± SD, Striatum (AChE [4]; [7]): 82.9 ± 2.8 % of controls | AChE activity in % of controls ± SD, Blood (AChE [4]; [8]): 105.7 ± 16.8 % of controls | AChE activity in % of controls ± SD, Cortex (AChE [4]; [8]): 93.8 ± 5.9 % of controls | AChE activity in % of controls ± SD, Heart (AChE [4]; [8]): 65.7 ± 21.2 % of controls | AChE activity in % of controls ± SD, Hippocampus (AChE [4]; [8]): 99.9 ± 9.9 % of controls | AChE activity in % of controls ± SD, Pons/Medulla (AChE [4]; [8]): 98.7 ± 6.0 % of controls | AChE activity in % of controls ± SD, Striatum (AChE [4]; [8]): 91.0 ± 2.3 % of controls | AChE activity in % of controls ± SD, Cortex (AChE [4]; [9]): 86.1 ± 5.6 % of controls | AChE activity in % of controls ± SD, Heart (AChE [4]; [9]): 109.0 ± 9.3 % of controls | AChE activity in % of controls ± SD, Hippocampus (AChE [4]; [9]): 86.7 ± 5.9 % of controls | AChE activity in % of controls ± SD, Pons/Medulla (AChE [4]; [9]): 91.5 ± 3.8 % of controls | AChE activity in % of controls ± SD, Striatum (AChE [4]; [9]): 89.7 ± 8.4 % of controls | AChE activity in % of controls ± SD, Blood (AChE [4]; [10]): 41.9 ± 13.1 % of controls | AChE activity in % of controls ± SD, Heart (AChE [4]; [10]): 52.0 ± 13.1 % of controls | AChE activity in % of controls ± SD, Hippocampus (AChE [4]; [10]): 45.7 ± 15.0 % of controls | AChE activity in % of controls ± SD, Pons/Medulla (AChE [4]; [10]): 53.6 ± 13.3 % of controls | AChE activity in % of controls ± SD, Cortex (AChE [4]; [11]): 73.8 ± 5.7 % of controls | AChE activity in % of controls ± SD, Heart (AChE [4]; [11]): 63.9 ± 12.5 % of controls | AChE activity in % of controls ± SD, Hippocampus (AChE [4]; [11]): 80.4 ± 8.8 % of controls | AChE activity in % of controls ± SD, Pons/Medulla (AChE [4]; [11]): 85.3 ± 4.2 % of controls | AChE activity in % of controls ± SD, Striatum (AChE [4]; [11]): 81.0 ± 8.2 % of controls | time of maximal AChE inhibition (AChE [4]; oral): 15 min | remaining activity at 10 µmol/kg (AChE [4]; read-out: AChE activity in % of controls ± SD, Blood, Oral 10 μmol/kg, 0.5 hours after treatment): 34 ± 2% | remaining activity at 10 µmol/kg (AChE [4]; read-out: AChE activity in % of controls ± SD, Blood, Oral 10 μmol/kg, 6 hours after treatment): 77.2 ± 14.7% | remaining activity at 10 µmol/kg (AChE [4]; read-out: AChE activity in % of controls ± SD, Blood, Oral 10 μmol/kg, 24 hours after treatment): 97.2 ± 13.8% | remaining activity at 10 µmol/kg (AChE [4]; read-out: AChE activity in % of controls ± SD, Cortex, Oral 10 μmol/kg, 0.5 hours after treatment): 21 ± 3.5% | remaining activity at 10 µmol/kg (AChE [4]; read-out: AChE activity in % of controls ± SD, Cortex, Oral 10 μmol/kg, 6 hours after treatment): 65.3 ± 21.3% | remaining activity at 10 µmol/kg (AChE [4]; read-out: AChE activity in % of controls ± SD, Cortex, Oral 10 μmol/kg, 24 hours after treatment): 99.2 ± 8.9% | remaining activity at 10 µmol/kg (AChE [4]; read-out: AChE activity in % of controls ± SD, Heart, Oral 10 μmol/kg, 0.5 hours after treatment): 71.2 ± 11.2% | remaining activity at 10 µmol/kg (AChE [4]; read-out: AChE activity in % of controls ± SD, Heart, Oral 10 μmol/kg, 6 hours after treatment): 101 ± 7% | remaining activity at 10 µmol/kg (AChE [4]; read-out: AChE activity in % of controls ± SD, Heart, Oral 10 μmol/kg, 24 hours after treatment): 94.2 ± 9.2% | remaining activity at 10 µmol/kg (AChE [4]; read-out: AChE activity in % of controls ± SD, Hippocampus, Oral 10 μmol/kg, 0.5 hours after treatment): 19.7 ± 3.8% | remaining activity at 10 µmol/kg (AChE [4]; read-out: AChE activity in % of controls ± SD, Hippocampus, Oral 10 μmol/kg, 6 hours after treatment): 62 ± 15.4% | remaining activity at 10 µmol/kg (AChE [4]; read-out: AChE activity in % of controls ± SD, Hippocampus, Oral 10 μmol/kg, 24 hours after treatment): 97.2 ± 7.1% | remaining activity at 10 µmol/kg (AChE [4]; read-out: AChE activity in % of controls ± SD, Pons/Medulla, Oral 10 μmol/kg, 0.5 hours after treatment): 26.6 ± 4% | remaining activity at 10 µmol/kg (AChE [4]; read-out: AChE activity in % of controls ± SD, Pons/Medulla, Oral 10 μmol/kg, 6 hours after treatment): 80.3 ± 9.2% | remaining activity at 10 µmol/kg (AChE [4]; read-out: AChE activity in % of controls ± SD, Pons/Medulla, Oral 10 μmol/kg, 24 hours after treatment): 104 ± 6.8% | remaining activity at 10 µmol/kg (AChE [4]; read-out: AChE activity in % of controls ± SD, Striatum, Oral 10 μmol/kg, 0.5 hours after treatment): 32.9 ± 10.7% | remaining activity at 10 µmol/kg (AChE [4]; read-out: AChE activity in % of controls ± SD, Striatum, Oral 10 μmol/kg, 6 hours after treatment): 87.5 ± 8.8% | remaining activity at 10 µmol/kg (AChE [4]; read-out: AChE activity in % of controls ± SD, Striatum, Oral 10 μmol/kg, 24 hours after treatment): 96.7 ± 3.3% | time of maximal AChE inhibition (AChE [4]; subcutaneous): 30 min | AChE inhibition after transdermal administration (AChE [4]; transdermal): long-lasting, dose-dependent inhibition of AChE activity | time of maximal AChE inhibition (AChE [4]; transdermal): > 120 min | AChE activity (AChE [4]; twenty four hours after oral application): has no effect on the enzyme | AChE activity (AChE [4]; twenty four hours after s.c. application): only the enzyme in the heart is significantly inhibited | AChE activity (AChE [4]; twenty four hours after transdermal application): still inhibited in central and peripheral regions
